Source: patent publication US20250352458A1, “IMPROVEMENTS IN OR RELATING TO EXTRACTS” (Givaudan SA, priority 2020, published 2025)
Several values for one entry are separate records, joined by “and”; a condition that tells them apart may be missing. Equal entries are not always repeated.

Legend:
Test in all cases: MIC evaluation, optical density and percentage of inhibition
[1] = test system: C. granulosum (ATCC 25564); type: cell-based, Cutibacterium granulosum
Source text: The minimum inhibitory concentration of the following active ingredients has been assessed: • Mangifera indica extract (in propanediol/water 75/25); • Vehicule (propanediol/water 75/25, expressed as Activolo3-75%); • “Pool Mangiferin” which is the pure molecule mangiferin at the same concentration in the Mangifera indica extract in propanediol/water 75/25. • “Pool Mangifera” with is the mix of the 4 molecules (mangiferin, maclurin-C-glucoside, irifluophenone-C-glucoside, gallotanin) at the same concentration in the Mangifera indica extract in propane-diol/water 75/25. […] After two days, the bacterial concentration was adjusted in reinforced clostridial broth to obtain a solution at 1.106 CFU/ml (5.104 CFU/well). […] Concentrations are expressed in % (m/v). […] The diluted bacterial suspension was added to columns 2 to 12. RCB medium was added to column 1 as negative control. Optical density was determined, which correlates to the bacterial growth.

S. aureus (ATCC 33592) = type: cell-based, Staphylococcus aureus
Source text: The minimum inhibitory concentration of the following active ingredients has been assessed: • Mangifera indica extract (in propanediol/water 75/25); • Vehicule (propanediol/water 75/25, expressed as Activolo3-75%); • “Pool Mangiferin” which is the pure molecule mangiferin at the same concentration in the Mangifera indica extract in propanediol/water 75/25. • “Pool Mangifera” with is the mix of the 4 molecules (mangiferin, maclurin-C-glucoside, irifluophenone-C-glucoside, gallotanin) at the same concentration in the Mangifera indica extract in propane-diol/water 75/25. S. aureus: The day before the experiment S. aureus (ATCC 33592) was plated and grown overnight at 37° C. Colonies were resuspended in 5 mL of TSB (Tryptic Soy Broth) to obtain a 0.5 McFarland D O (≈1.10^8 CFU/ml) (launch of culture at D-1). […] Concentrations are expressed in % (m/v). […] The diluted bacterial suspension was added to columns 2 to 12. RCB medium was added to column 1 as negative control. Optical density was determined, which correlates to the bacterial growth.

[2] = test system: H. influenzae (ATCC 49766); type: cell-based, Haemophilus influenza
Source text: The minimum inhibitory concentration of the following active ingredients has been assessed: • Mangifera indica extract (in propanediol/water 75/25); • Vehicule (propanediol/water 75/25, expressed as Activolo3-75%); • “Pool Mangiferin” which is the pure molecule mangiferin at the same concentration in the Mangifera indica extract in propanediol/water 75/25. • “Pool Mangifera” with is the mix of the 4 molecules (mangiferin, maclurin-C-glucoside, irifluophenone-C-glucoside, gallotanin) at the same concentration in the Mangifera indica extract in propane-diol/water 75/25.
H. influenzae (ATCC 49766) was cultured in Mueller Hinton broth as recommended by ATCC with 5% CO2. The Bacterial concentration was adjusted in Mueller Hinton broth to obtain a solution at 1.106 CFU/ml (5.104 CFU/well) (launch of culture at D-2). […] Two day later, the inhibition of H. influenzae was evaluated using Colony counter IUL instruments, flash and go model (reading at D2).
Concentrations are expressed in % (m/v).
The diluted bacterial suspension was added to columns 2 to 12. RCB medium was added to column 1 as negative control.
Optical density was determined, which correlates to the bacterial growth. Thereafter, an inhibition value (%) was determined for each condition using the following formula: […]
The percentage of inhibition must be higher or equal than 90% to reach the MIC.

[3] = 0.39 10^−2 % (m/v), plate col. 12
[4] = 0.78 10^−2 % (m/v), plate col. 11
[5] = 1.56 10^−2 % (m/v), plate col. 10
[6] = 3.1310^−2 % (m/v), plate col. 9
[7] = 6.25 10^−2 % (m/v), plate col. 8
[8] = 12.5 10^−2 % (m/v), plate col. 7
[9] = 25.0 10^−2 % (m/v), plate col. 6

O=c1c2cc(O)c(O)cc2oc2cc(O)c([C@@H]3O[C@H](CO)[C@@H](O)[C@H](O)[C@H]3O)c(O)c12 [pool mangiferin]
Optical density, C. granulosum [1, 3]: 0.546 and 0.539
Percentage of inhibition, C. granulosum [1, 3]: 0.5% and 1.9%
Optical density, C. granulosum ([1]; 0.5% (m/v), plate col. 5): 0.449 and 0.457
Percentage of inhibition, C. granulosum ([1]; 0.5% (m/v), plate col. 5): 19.9% and 18.3%
Optical density, C. granulosum [1, 4]: 0.561
Percentage of inhibition, C. granulosum [1, 4]: 0%
Optical density, C. granulosum ([1]; 1% (m/v), plate col. 4): 0.417 and 0.419
Percentage of inhibition, C. granulosum ([1]; 1% (m/v), plate col. 4): 26.3% and 25.9%
Optical density, C. granulosum [1, 5]: 0.573 and 0.570
Percentage of inhibition, C. granulosum [1, 5]: 0%
Optical density, C. granulosum ([1]; 2% (m/v), plate col. 3): 0.391 and 0.398
Percentage of inhibition, C. granulosum ([1]; 2% (m/v), plate col. 3): 31.5% and 30.1%
Optical density, C. granulosum [1, 6]: 0.592 and 0.558
Percentage of inhibition, C. granulosum [1, 6]: 0%
Optical density, C. granulosum [1, 7]: 0.545
Percentage of inhibition, C. granulosum [1, 7]: 0.7%
Optical density, C. granulosum [1, 8]: 0.505 and 0.520
Percentage of inhibition, C. granulosum [1, 8]: 8.7% and 5.7%
Optical density, C. granulosum [1, 9]: 0.479 and 0.478
Percentage of inhibition, C. granulosum [1, 9]: 13.9% and 14.1%
antibacterial effect against C. granulosum (in words) ([1]; at 2%): slight antibacterial effect
Optical density, S. aureus (S. aureus (ATCC 33592); [3]): 0.387 and 0.392
Percentage of inhibition, S. aureus (S. aureus (ATCC 33592); [3]): 3.0% and 1.6%
Optical density, S. aureus (S. aureus (ATCC 33592); 0.5% (m/v), plate col. 5): 0.363 and 0.359
Percentage of inhibition, S. aureus (S. aureus (ATCC 33592); 0.5% (m/v), plate col. 5): 9.8% and 11.0%
Optical density, S. aureus (S. aureus (ATCC 33592); [4]): 0.384 and 0.366
Percentage of inhibition, S. aureus (S. aureus (ATCC 33592); [4]): 3.9% and 9.0%
Optical density, S. aureus (S. aureus (ATCC 33592); 1% (m/v), plate col. 4): 0.346 and 0.348
Percentage of inhibition, S. aureus (S. aureus (ATCC 33592); 1% (m/v), plate col. 4): 14.7% and 14.1%
Optical density, S. aureus (S. aureus (ATCC 33592); [5]): 0.365 and 0.369
Percentage of inhibition, S. aureus (S. aureus (ATCC 33592); [5]): 9.3% and 8.1%
antibacterial effect on S. aureus (in words) (S. aureus (ATCC 33592); 2%): slight antibacterial effect
Optical density, S. aureus (S. aureus (ATCC 33592); 2% (m/v), plate col. 3): 0.320 and 0.327
Percentage of inhibition, S. aureus (S. aureus (ATCC 33592); 2% (m/v), plate col. 3): 22.1% and 20.1%
Optical density, S. aureus (S. aureus (ATCC 33592); [6]): 0.377 and 0.378
Percentage of inhibition, S. aureus (S. aureus (ATCC 33592); [6]): 5.9% and 5.6%
Optical density, S. aureus (S. aureus (ATCC 33592); [7]): 0.370 and 0.364
Percentage of inhibition, S. aureus (S. aureus (ATCC 33592); [7]): 7.9% and 9.6%
Optical density, S. aureus (S. aureus (ATCC 33592); [8]): 0.368 and 0.367
Percentage of inhibition, S. aureus (S. aureus (ATCC 33592); [8]): 8.4% and 8.7%
Optical density, S. aureus (S. aureus (ATCC 33592); [9]): 0.370 and 0.368
Percentage of inhibition, S. aureus (S. aureus (ATCC 33592); [9]): 7.9% and 8.4%
Optical density, H. influenza [2, 3]: 0.190 and 0.197
Percentage of inhibition, H. influenza [2, 3]: 1.9% and 0%
Optical density, H. influenza ([2]; 0.5% (m/v), plate col. 5): 0.193 and 0.191
Percentage of inhibition, H. influenza ([2]; 0.5% (m/v), plate col. 5): −0.3% and 1.2%
Optical density, H. influenza [2, 4]: 0.188 and 0.197
Percentage of inhibition, H. influenza [2, 4]: 3.4% and 0%
Optical density, H. influenza ([2]; 1% (m/v), plate col. 4): 0.190 and 0.183
Percentage of inhibition, H. influenza ([2]; 1% (m/v), plate col. 4): 1.9% and 7.0%
Optical density, H. influenza [2, 5]: 0.185 and 0.196
Percentage of inhibition, H. influenza [2, 5]: 5.5% and 0%
antibacterial effect against H. influenza (in words) ([2]; 2%): no antibacterial effect
Optical density, H. influenza ([2]; 2% (m/v), plate col. 3): 0.184 and 0.181
Percentage of inhibition, H. influenza ([2]; 2% (m/v), plate col. 3): 6.3% and 8.4%
Optical density, H. influenza [2, 6]: 0.180 and 0.193
Percentage of inhibition, H. influenza [2, 6]: 9.1% and 0%
Optical density, H. influenza [2, 7]: 0.185 and 0.197
Percentage of inhibition, H. influenza [2, 7]: 5.5% and 0%
Optical density, H. influenza [2, 8]: 0.187 and 0.195
Percentage of inhibition, H. influenza [2, 8]: 4.1% and 0%
Optical density, H. influenza [2, 9]: 0.189 and 0.196
Percentage of inhibition, H. influenza [2, 9]: 2.6% and 0%
